From US10927123B2, “Modulators of the beta-3 adrenergic receptor useful for the treatment or prevention of disorders related thereto” (Arena Pharmaceuticals, Inc., priority 2016, dated 2021) come the findings set out here.

As usually defined, the IC50 is the concentration at which inhibition is half-maximal.

Chain of Beta-3 Adrenergic Receptor (P13945 whole entry, species assumed): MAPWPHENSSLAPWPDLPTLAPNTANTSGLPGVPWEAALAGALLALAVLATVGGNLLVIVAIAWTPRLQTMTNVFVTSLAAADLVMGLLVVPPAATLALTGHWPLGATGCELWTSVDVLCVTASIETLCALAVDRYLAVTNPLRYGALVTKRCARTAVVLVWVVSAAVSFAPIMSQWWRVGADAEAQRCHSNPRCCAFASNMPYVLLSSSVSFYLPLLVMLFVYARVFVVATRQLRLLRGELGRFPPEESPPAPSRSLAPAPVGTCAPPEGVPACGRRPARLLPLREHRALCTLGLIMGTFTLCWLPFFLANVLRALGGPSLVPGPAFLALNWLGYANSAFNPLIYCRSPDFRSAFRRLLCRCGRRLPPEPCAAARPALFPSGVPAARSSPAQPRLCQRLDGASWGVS

In the assay the target is Beta-3 Adrenergic Receptor (Homo sapiens (Human), UniProt P13945). As to the kind of experiment: HTRF cAMP antagonist assay (IC50 determination). The settings on record: CHO-K1 cells stably expressing recombinant receptor; antagonism of isoproterenol at EC90; cAMP readout. Format: cell-based. In a few lines:
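CHO-K1 cells stably expressing receptor, 1500 cells/well, preincubated briefly with 10-point 5-fold compound series (top final typically 10 or 100 μM) in PBS with 1 mM IBMX, then challenged with isoproterenol at EC90 for 1 h at room temperature. cAMP read by HTRF against on-plate standard curve; IC50 from dose-response.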
As to `CS(=O)(=O)c1cccc(OC[C@@H](O)CNC2COC3(CCN(S(=O)(=O)c4ccc5cc(Cl)ccc5c4)CC3)C2)c1` (stereo partly drawn) [Compound 73, (2S)-1-(8-(6-chloronaphthalen-2-ylsulfonyl)-1-oxa-8-azaspiro[4.5]decan-3-ylamino)-3-(3-(methylsulfonyl)phenoxy)propan-2-ol], the half-inhibitory concentration (IC50) worked out at 23.9 nM.
Regarding `CCOc1ccc(-c2ccc(CN)c(F)c2)cc1S(=O)(=O)N1CCC2(CC1)C[C@H](NC[C@H](O)COc1cccc(S(=O)(=O)C3(CO)CC3)c1)CO2` [Compound 220, (S)-1-((S)-8-(4′-(aminomethyl)-4-ethoxy-3′-fluorobiphenyl-3-ylsulfonyl)-1-oxa-8-azaspiro[4.5]decan-3-ylamino)-3-(3-(1-(hydroxymethyl)cyclopropylsulfonyl)phenoxy)propan-2-ol], the IC50 was 27.5 nM.
For the compound `O=S(=O)(c1cccc(OC[C@@H](O)CNC2COC3(CCN(S(=O)(=O)c4ccc5ccccc5c4)CC3)C2)c1)C1CCC1` (stereo partly drawn) [Compound 18, (2S)-1-(3-(cyclobutylsulfonyl)phenoxy)-3-(8-(naphthalen-2-ylsulfonyl)-1-oxa-8-azaspiro[4.5]decan-3-ylamino)propan-2-ol], the 50% inhibitory concentration (IC50) stood at 48.9 nM.
Then `NCc1ccc(-c2ccc(F)c(S(=O)(=O)N3CCC4(CC3)C[C@@H](NC[C@H](O)COc3cccc(S(=O)(=O)C5(CO)CC5)c3)CO4)c2)cc1` [Compound 169, (S)-1-((R)-8-(4′-(aminomethyl)-4-fluorobiphenyl-3-ylsulfonyl)-1-oxa-8-azaspiro[4.5]decan-3-ylamino)-3-(3-(1-(hydroxymethyl)cyclopropylsulfonyl)phenoxy)propan-2-ol], with 17.5 nM; and `CS(=O)(=O)c1cccc(OC[C@@H](O)CNC2COC3(CCN(S(=O)(=O)c4ccc5c(c4)CCO5)CC3)C2)c1` (stereo partly drawn) [Compound 74, (2S)-1-(8-(2,3-dihydrobenzofuran-5-ylsulfonyl)-1-oxa-8-azaspiro[4.5]decan-3-ylamino)-3-(3-(methylsulfonyl)phenoxy)propan-2-ol], with 38 nM; and `CS(=O)(=O)c1cccc(OC[C@@H](O)CNC2COC3(CCN(S(=O)(=O)c4cc5ccccc5o4)CC3)C2)c1` (stereo partly drawn) [Compound 60, (2S)-1-(8-(benzofuran-2-ylsulfonyl)-1-oxa-8-azaspiro[4.5]decan-3-ylamino)-3-(3-(methylsulfonyl)phenoxy)propan-2-ol], with 17.4 nM.
On to `CS(=O)(=O)c1cccc(OC[C@@H](O)CNC2COC3(CCN(C(=O)c4ccc5[nH]ccc5c4)CC3)C2)c1` (stereo partly drawn) [Compound 67, (3-((S)-2-hydroxy-3-(3-(methylsulfonyl)phenoxy)propylamino)-1-oxa-8-azaspiro[4.5]decan-8-yl)(1H-indol-5-yl)methanone], for which the half-maximal inhibitory concentration (IC50) came to 822 nM.
The same measure for `O=S(=O)(CCO)c1cccc(OC[C@@H](O)CN[C@H]2COC3(CCN(S(=O)(=O)c4cccc(-c5ccccn5)c4)CC3)C2)c1` [Compound 100, (S)-1-(3-(2-hydroxyethylsulfonyl)phenoxy)-3-((R)-8-(3-(pyridin-2-yl)phenylsulfonyl)-1-oxa-8-azaspiro[4.5]decan-3-ylamino)propan-2-ol]: 92.2 nM; for `Cc1cccc2c(O)c(S(=O)(=O)N3CCC4(CC3)C[C@@H](NC[C@H](O)COc3cccc(S(=O)(=O)C5CC5)c3)CO4)cnc12` [Compound 327, 3-((R)-3-((S)-3-(3-(cyclopropylsulfonyl)phenoxy)-2-hydroxypropylamino)-1-oxa-8-azaspiro[4.5]decan-8-ylsulfonyl)-8-methylquinolin-4-ol]: 28.9 nM.
Consider `CS(=O)(=O)c1cccc(OC[C@@H](O)CNC2COC3(CCN(S(=O)(=O)c4cccc(-c5cn[nH]c5)c4)CC3)C2)c1` (stereo partly drawn) [Compound 37, (2S)-1-(8-(3-(1H-pyrazol-4-yl)phenylsulfonyl)-1-oxa-8-azaspiro[4.5]decan-3-ylamino)-3-(3-(methylsulfonyl)phenoxy)propan-2-ol], for which the IC50 stood at 9.37 nM.
The same measure for `CCCn1cc(-c2cccc(S(=O)(=O)N3CCC4(CC3)CC(NC[C@H](O)COc3cccc(S(C)(=O)=O)c3)CO4)c2)cn1` (stereo partly drawn) [Compound 38, (2S)-1-(3-(methylsulfonyl)phenoxy)-3-(8-(3-(1-propyl-1H-pyrazol-4-yl)phenylsulfonyl)-1-oxa-8-azaspiro[4.5]decan-3-ylamino)propan-2-ol]: 3.99 nM; for `Cn1cnc2ccc(S(=O)(=O)N3CCC4(CC3)C[C@@H](NC[C@H](O)COc3cccc(S(=O)(=O)C5(CO)CC5)c3)CO4)nc21` [Compound 287, (S)-1-(3-(1-(hydroxymethyl)cyclopropylsulfonyl)phenoxy)-3-((R)-8-(3-methyl-3H-imidazo[4,5-b]pyridin-5-ylsulfonyl)-1-oxa-8-azaspiro[4.5]decan-3-ylamino)propan-2-ol]: 151 nM; for `CCOc1ccc(-c2ccc(C(C)(C)CN)cc2)cc1S(=O)(=O)N1CCC2(CC1)C[C@@H](NC[C@H](O)COc1cccc(S(=O)(=O)C3(CO)CC3)c1)CO2` [Compound 174, (S)-1-((R)-8-(4′-(1-amino-2-methylpropan-2-yl)-4-ethoxybiphenyl-3-ylsulfonyl)-1-oxa-8-azaspiro[4.5]decan-3-ylamino)-3-(3-(1-(hydroxymethyl)cyclopropylsulfonyl)phenoxy)propan-2-ol]: 699 nM.
For `CS(=O)(=O)c1cccc(OC[C@@H](O)CNC2COC3(CCN(S(=O)(=O)c4ccc5[nH]cnc5c4)CC3)C2)c1` (stereo partly drawn) [Compound 76, (2S)-1-(8-(1H-benzo[d]imidazol-5-ylsulfonyl)-1-oxa-8-azaspiro[4.5]decan-3-ylamino)-3-(3-(methylsulfonyl)phenoxy)propan-2-ol], the half-maximal inhibitory concentration (IC50) worked out at 35.9 nM.
With `NCc1ccc(-c2cccc(S(=O)(=O)N3CCC4(CC3)C[C@H](NC[C@H](O)COc3cccc(S(=O)(=O)C5(CO)CC5)c3)CO4)c2)cc1F` [Compound 182, (S)-1-((S)-8-(4′-(aminomethyl)-3′-fluorobiphenyl-3-ylsulfonyl)-1-oxa-8-azaspiro[4.5]decan-3-ylamino)-3-(3-(1-(hydroxymethyl)cyclopropylsulfonyl)phenoxy)propan-2-ol], the concentration for half-maximal inhibition (IC50) was determined as 24.7 nM.
Then `NCc1ccc(-c2ccc(S(=O)(=O)N3CCC4(CC3)C[C@@H](NC[C@H](O)COc3cccc(S(=O)(=O)CCO)c3)CO4)cc2)cc1` [Compound 103, (S)-1-((R)-8-(4′-(aminomethyl)biphenyl-4-ylsulfonyl)-1-oxa-8-azaspiro[4.5]decan-3-ylamino)-3-(3-(2-hydroxyethylsulfonyl)phenoxy)propan-2-ol], with 1200 nM.
Then `O=S(=O)(c1cccc(OC[C@@H](O)CN[C@H]2COC3(CCN(S(=O)(=O)c4cnc5c(c4)OCCO5)CC3)C2)c1)C1CC1` [Compound 289, (S)-1-(3-(cyclopropylsulfonyl)phenoxy)-3-((R)-8-(2,3-dihydro-[1,4]dioxino[2,3-b]pyridin-7-ylsulfonyl)-1-oxa-8-azaspiro[4.5]decan-3-ylamino)propan-2-ol], with 65.8 nM; and `O=S(=O)(c1cccc(OC[C@@H](O)CN[C@H]2COC3(CCN(S(=O)(=O)c4c[nH]c5ccccc45)CC3)C2)c1)C1CC1` [Compound 308, (S)-1-((R)-8-(1H-indol-3-ylsulfonyl)-1-oxa-8-azaspiro[4.5]decan-3-ylamino)-3-(3-(cyclopropylsulfonyl)phenoxy)propan-2-ol], with 34.5 nM; and `O=S(=O)(c1cccc(OC[C@@H](O)CN[C@H]2COC3(CCN(S(=O)(=O)c4cnc5ccccc5c4)CC3)C2)c1)C1CC1` [Compound 144, (S)-1-(3-(cyclopropylsulfonyl)phenoxy)-3-((R)-8-(quinolin-3-ylsulfonyl)-1-oxa-8-azaspiro[4.5]decan-3-ylamino)propan-2-ol], with 7.77 nM.
The same measure for `CCC(C)S(=O)(=O)c1cccc(OC[C@@H](O)CNC2COC3(CCN(S(=O)(=O)c4ccc5ccccc5c4)CC3)C2)c1` (stereo partly drawn) [Compound 25, (2S)-1-(3-(sec-butylsulfonyl)phenoxy)-3-(8-(naphthalen-2-ylsulfonyl)-1-oxa-8-azaspiro[4.5]decan-3-ylamino)propan-2-ol]: 54.6 nM; for `O=S(=O)(c1cccc(-c2ccc(CNCC(F)(F)F)cc2)c1)N1CCC2(CC1)C[C@H](NC[C@H](O)COc1cccc(S(=O)(=O)C3(CO)CC3)c1)CO2` [Compound 242, (S)-1-(3-(1-(hydroxymethyl)cyclopropylsulfonyl)phenoxy)-3-((S)-8-(4′-((2,2,2-trifluoroethylamino)methyl)biphenyl-3-ylsulfonyl)-1-oxa-8-azaspiro[4.5]decan-3-ylamino)propan-2-ol]: 35.5 nM; for `O=S(=O)(CF)c1cccc(OC[C@@H](O)CNC2COC3(CCN(S(=O)(=O)c4ccc5ccccc5c4)CC3)C2)c1` (stereo partly drawn) [Compound 86, (2S)-1-(3-(fluoromethylsulfonyl)phenoxy)-3-(8-(naphthalen-2-ylsulfonyl)-1-oxa-8-azaspiro[4.5]decan-3-ylamino)propan-2-ol]: 9.1 nM.
For the compound `CCOc1ccc(-c2ccc(CN)cc2)cc1S(=O)(=O)N1CCC2(CC1)C[C@H](NC[C@H](O)COc1cccc(S(=O)(=O)CC(N)=O)c1)CO2` [Compound 205, 2-(3-((S)-3-((S)-8-(4′-(aminomethyl)-4-ethoxybiphenyl-3-ylsulfonyl)-1-oxa-8-azaspiro[4.5]decan-3-ylamino)-2-hydroxypropoxy)phenylsulfonyl)acetamide], the 50% inhibitory concentration (IC50) is 92.2 nM.
Then `CC(=O)NCCc1ccc(-c2cccc(S(=O)(=O)N3CCC4(CC3)C[C@H](NC[C@H](O)COc3cccc(S(=O)(=O)C5(CO)CC5)c3)CO4)c2)cc1` [Compound 190, N-(2-(3′-((S)-3-((S)-2-hydroxy-3-(3-(1-(hydroxymethyl)cyclopropylsulfonyl)phenoxy)propylamino)-1-oxa-8-azaspiro[4.5]decan-8-ylsulfonyl)biphenyl-4-yl)ethyl)acetamide], with 31.3 nM.
